{"source": "patent US20110201582A1", "about": "“METHOD AND COMPOSITION FOR TREATMENT OF SKIN CONDITIONS” (priority 2004, published 2011)", "tested_on": "eczema, seborrheic dermatitis and allergic skin reactions", "test": "Applicant's general experiments: compounds applied to the affected skin area alone or before a topical corticosteroid", "format": "in vivo, adult patient", "conditions": "for effectiveness in alleviating the symptoms: applied alone, with no steroid; for enhancement of effectiveness of the topical corticosteroid: applied to affected area prior to the topical corticosteroid, compared with topical corticosteroid alone; for effectiveness compared with hydrocortisone 2.5% alone: decongestant alone applied before hydrocortisone 0.5%", "protocol": "The experiments were conducted in order to try to treat these conditions as well as to try to enhance the performance of hydrocortisone and other topical corticosteroids in the treatment of these conditions.\nWith respect to the use of compounds to try to enhance the effectiveness of topical corticosteroids, the experiments involved first applying to the affected area particular compounds and then shortly thereafter applying to the same affected area a topical corticosteroid. For example, compounds that were tried include eye drop solutions, nasal decongestant sprays and other kinds of compounds available over the counter or by prescription. Antihistamine and decongestant combinations were tried as a solution to be applied to the affected area prior to the application of the steroid. In addition, antihistamines alone (preceding the corticosteroid) and decongestants alone (preceding the corticosteroid) were tried. As stated above, antihistamines alone (without the corticosteroid) and decongestants alone (without the corticosteroid) were also tried.\nAn increase in effectiveness is defined as greater alleviation of the dermatological symptoms of the condition or speedier alleviation of the dermatological symptoms of the condition or both.\nThat is, the identical experiment was conducted for the same condition but without preceding (or following) the application of the corticosteroid cream with an application of any solution in according with the method of the present invention.", "note": "“Also recorded” adds a separate entry of the source. Where a name gives a salt, the structure may show the parent alone."}
{"smiles": "c1ccc2c(CC3=NCCN3)cccc2c1", "note": "[naphazoline HCL]", "values": [{"measurement": "effectiveness in alleviating the symptoms", "setting": "HCL", "value": "works somewhat to alleviate dermatological symptoms, albeit not fantastically; also recorded: mildly effective alleviation"}, {"measurement": "enhancement of effectiveness of the topical corticosteroid", "setting": "HCL", "value": "slightly greater than that of a topical corticosteroid alone; also recorded: only mild enhancement of effectiveness"}, {"measurement": "effectiveness compared with hydrocortisone 2.5% alone", "value": "performs better"}]}
{"smiles": "CNC[C@H](O)c1cccc(O)c1", "note": "[phenylephrine HCL]", "values": [{"measurement": "effectiveness in alleviating the symptoms", "setting": "HCL", "value": "works somewhat to alleviate dermatological symptoms, albeit not fantastically; also recorded: mildly effective alleviation"}, {"measurement": "enhancement of effectiveness of the topical corticosteroid", "value": "only mild enhancement of effectiveness"}, {"measurement": "effectiveness compared with hydrocortisone 2.5% alone", "value": "performs better"}]}
